Reference: patent publication US20060040957A1, “BICYCLIC PYRIMIDINE MATRIX METALLOPROTEINASE INHIBITORS” (priority 2001, published 2006)
Structures can show the parent of a compound that is named as a salt.

Assays:
Assay type in all cases: biochemical
[1] = molecular target: MMP-9FL (full length Gelatinase B) (Homo sapiens, UniProt P14780); test: Thiopeptolide substrate hydrolysis assay, MMP-9FL; conditions: HEPES pH 7.0, 22° C., read-out: IC50 (μM) Versus Certain MMPs: MMP-09 FL
Text: (§1) The invention compounds of Formula I have been evaluated in standard assays for their ability to inhibit the catalytic activity of various MMP enzymes.
(§2) Thiopeptolide substrates show virtually no decomposition or hydrolysis at or below neutral pH in the absence of a matrix metalloproteinase enzyme.
(§3) Several representative compounds have been evaluated for their ability to inhibit various matrix metalloproteinase enzymes.

[2] = molecular target: T1, MMP-2FL (full length Gelatinase A) (Homo sapiens, UniProt P08253); test: Thiopeptolide substrate hydrolysis assay, MMP-2FL; conditions: HEPES pH 7.0, 22° C., read-out: IC50 (μM) Versus Certain MMPs: MMP-02 FL
T1 sequence (P08253 110-660): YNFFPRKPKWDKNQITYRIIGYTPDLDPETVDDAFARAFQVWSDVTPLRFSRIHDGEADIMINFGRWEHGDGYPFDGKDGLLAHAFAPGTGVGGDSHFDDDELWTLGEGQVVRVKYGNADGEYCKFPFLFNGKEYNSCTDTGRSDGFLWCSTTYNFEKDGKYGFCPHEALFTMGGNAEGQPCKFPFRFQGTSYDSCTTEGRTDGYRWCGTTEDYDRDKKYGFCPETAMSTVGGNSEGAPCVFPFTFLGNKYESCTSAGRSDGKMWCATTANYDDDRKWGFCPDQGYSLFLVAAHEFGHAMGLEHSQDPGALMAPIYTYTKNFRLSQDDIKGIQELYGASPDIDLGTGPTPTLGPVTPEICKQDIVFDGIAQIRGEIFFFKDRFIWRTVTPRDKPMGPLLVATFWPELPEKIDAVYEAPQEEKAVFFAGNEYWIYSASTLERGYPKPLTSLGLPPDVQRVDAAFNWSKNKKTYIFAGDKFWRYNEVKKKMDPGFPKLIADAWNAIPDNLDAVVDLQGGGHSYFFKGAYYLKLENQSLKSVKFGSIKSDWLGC
Text: as §1, §2, §3

[3] = molecular target: T2, MMP-7FL (full length matrilysin) (Homo sapiens, UniProt P09237); test: Thiopeptolide substrate hydrolysis assay, MMP-7FL; conditions: HEPES pH 7.0, 22° C., read-out: IC50 (μM) Versus Certain MMPs: MMP-07 FL
T2 sequence (P09237 95-267): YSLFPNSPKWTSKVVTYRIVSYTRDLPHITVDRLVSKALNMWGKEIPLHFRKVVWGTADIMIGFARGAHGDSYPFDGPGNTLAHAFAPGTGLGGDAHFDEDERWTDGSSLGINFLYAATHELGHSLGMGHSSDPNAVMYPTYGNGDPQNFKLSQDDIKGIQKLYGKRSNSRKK
Text: as §1, §2, §3

[4] = molecular target: MMP-14CD (catalytic domain of MMP-14) (Homo sapiens, UniProt P50281); test: Thiopeptolide substrate hydrolysis assay, MMP-14CD; conditions: HEPES pH 7.0, 22° C., read-out: IC50 (μM) Versus Certain MMPs: MMP-14 CD
Text: as §1, §2, §3

Sequence of MMP-9FL (full length Gelatinase B) (P14780 94-707, species assumed): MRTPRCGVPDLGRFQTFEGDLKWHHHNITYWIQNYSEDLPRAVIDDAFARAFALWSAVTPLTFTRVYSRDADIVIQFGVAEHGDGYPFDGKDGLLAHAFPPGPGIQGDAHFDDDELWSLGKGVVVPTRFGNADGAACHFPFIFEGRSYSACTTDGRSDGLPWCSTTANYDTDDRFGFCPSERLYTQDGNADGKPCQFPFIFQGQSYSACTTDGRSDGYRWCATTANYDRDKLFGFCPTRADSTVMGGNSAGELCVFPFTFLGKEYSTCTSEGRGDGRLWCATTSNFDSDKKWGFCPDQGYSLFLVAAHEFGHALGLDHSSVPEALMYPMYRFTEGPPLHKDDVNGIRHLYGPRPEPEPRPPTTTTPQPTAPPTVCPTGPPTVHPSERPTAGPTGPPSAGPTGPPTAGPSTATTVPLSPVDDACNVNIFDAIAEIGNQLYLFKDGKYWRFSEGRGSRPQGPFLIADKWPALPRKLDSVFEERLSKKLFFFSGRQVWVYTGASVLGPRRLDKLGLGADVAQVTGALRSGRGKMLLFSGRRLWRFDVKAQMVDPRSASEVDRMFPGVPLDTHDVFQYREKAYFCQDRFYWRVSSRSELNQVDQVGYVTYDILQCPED

IC50 [1] | IC50 [2] | IC50 [3] | IC50 [4] | Compound
> 30 µM | > 30 µM | > 30 µM | > 30 µM | Cc1c(=O)n(Cc2ccccc2)c(=O)n2cc(C(=O)NCc3ccc(F)cc3)sc12 [Example 30, 6-Benzyl-8-methyl-5,7-dioxo-6,7-dihydro-5H-thiazolo[3,2-c]pyrimidine-2-carboxylic acid 4-fluoro-benzylamide]
> 30 µM | > 100 µM | > 100 µM | > 100 µM | Cc1nc(Cn2c(=O)c(C)c3sc(C(=O)NCc4ccc(F)cc4)cn3c2=O)cs1 [Example 64, 8-Methyl-6-(2-methyl-thiazol-4-ylmethyl)-5,7-dioxo-6,7-dihydro-5H-thiazolo[3,2-c]pyrimidine-2-carboxylic acid 4-fluoro-benzylamide]
> 30 µM | > 100 µM | > 100 µM | > 100 µM | Cc1c(=O)n(Cc2ccccc2)c(=O)n2cc(C(=O)NCc3cccnc3)sc12 [Example 44, 6-benzyl-8-methyl-5,7-dioxo-6,7-dihydro-5H-thiazolo[3,2-c]pyrimidine-2-carboxylic acid(pyridin-3-ylmethyl)-amide]
> 100 µM | > 100 µM | > 100 µM | > 100 µM | O=C(OCc1ccccc1)C1C[S+]([O-])c2cc(=O)n(Cc3ccccc3)c(=O)n21 (stereo not shown) [Example 23, 6-Benzyl-1,5,7-trioxo-1,2,3,5,6,7-hexahydro-114-thiazolo[3,2-c]pyrimidine-3-carboxylic acid benzyl ester]
> 100 µM | > 100 µM | > 100 µM | > 100 µM | Cc1c(=O)n(Cc2ccc(C(=O)OCCN(C)C)cc2)c(=O)n2cc(C(=O)NCc3ccc(F)cc3)sc12 [Example 60, 4-[2-(4-Fluoro-benzylcarbamoyl)-8-methyl-5,7-dioxo-7H-thiazolo[3,2-c]pyrimidin-6-ylmethyl]-benzoic acid 2-dimethylamino-ethyl ester]
> 30 µM | > 30 µM | > 30 µM | > 30 µM | Cc1c(=O)n(Cc2ccc(C(=O)N3CCOCC3)cc2)c(=O)n2cc(C(=O)NCc3ccc(F)cc3)sc12 [Example 76, 8-Methyl-6-[4-(morpholine-4-carbonyl)-benzyl]-5,7-dioxo-6,7-dihydro-5H-thiazolo[3,2-c]pyrimidine-2-carboxylic acid 4-fluoro-benzylamide]
> 30 µM | > 30 µM | > 30 µM | > 100 µM | Cc1c(=O)n(Cc2ccccc2)c(=O)n2cc(C(=O)NCc3ccc(F)c(F)c3)sc12 [Example 43, 6-Benzyl-8-methyl-5,7-dioxo-6,7-dihydro-5H-thiazolo[3,2-c]pyrimidine-2-carboxylic acid 3,4-difluoro-benzylamide]
> 100 µM | > 100 µM | > 30 µM | > 30 µM | COc1ccc(CNC(=O)c2cn3c(=O)n(Cc4ccccc4)c(=O)c(C=O)c3s2)cc1 [Example 32, 6-Benzyl-8-formyl-5,7-dioxo-6,7-dihydro-5H-thiazolo[3,2-c]pyrimidine-2-carboxylic acid 4-methoxy-benzylamide]
> 30 µM | > 30 µM | > 30 µM | > 30 µM | Cc1c(=O)n(Cc2ccc(Br)cc2)c(=O)n2cc(C(=O)NCc3ccncc3)sc12 [Example 71, 6-(4-Bromo-benzyl)-8-methyl-5,7-dioxo-6,7-dihydro-5H-thiazolo[3,2-c]pyrimidine-2-carboxylic acid(pyridin-4-ylmethyl)-amide hydrochloride]
> 100 µM | > 30 µM | 31 µM | > 100 µM | Cc1c(=O)n(Cc2ccccc2)c(=O)n2cc(C(=O)NCc3ccc(Cl)cc3)sc12 [Example 50, 6-Benzyl-8-methyl-5,7-dioxo-6,7-dihydro-5H-thiazolo[3,2-c]pyrimidine-2-carboxylic acid 4-chloro-benzylamide]
> 100 µM | > 30 µM | > 30 µM | > 100 µM | Cc1c(=O)n(Cc2ccccc2)c(=O)n2cc(C(=O)NCc3ccc(OC(F)(F)F)cc3)sc12 [Example 51, 6-Benzyl-8-methyl-5,7-dioxo-6,7-dihydro-5H-thiazolo[3,2-c]pyrimidine-2-carboxylic acid 4-trifluoromethoxy-benzylamide]
> 30 µM | > 100 µM | 21 µM | > 30 µM | Cc1c(=O)n(Cc2ccccc2)c(=O)n2cc(C(=O)NCc3cccc(F)c3)sc12 [Example 10, 6-Benzyl-8-methyl-5,7-dioxo-6,7-dihydro-5H-thiazolo[3,2-c]pyrimidine-2-carboxylic acid 3-fluoro-benzylamide]
> 30 µM | > 100 µM | > 100 µM | > 100 µM | Cc1c(=O)n(Cc2ccccc2)c(=O)n2cc(C(=O)NCc3ccncc3)sc12 [Example 36, 6-Benzyl-8-methyl-5,7-dioxo-6,7-dihydro-5H-thiazolo[3,2-c]pyrimidine-2-carboxylic acid(pyridin-4-ylmethyl)-amide hydrochloride]
> 30 µM | > 30 µM | 87 µM | > 30 µM | COC(=O)Nc1cc(Cn2c(=O)c(C)c3sc(C(=O)NCc4ccc(F)cc4)cn3c2=O)on1 [Example 74, {5-[2-(4-Fluoro-benzylcarbamoyl)-8-methyl-5,7-dioxo-7H-thiazolo[3,2-c]pyrimidin-6-ylmethyl]-isoxazol-3-yl}-carbamic acid methyl ester]
> 100 µM | > 100 µM | > 100 µM | > 100 µM | Cc1c(=O)n(Cc2ccc(S(N)(=O)=O)cc2)c(=O)n2cc(C(=O)NCc3ccncc3)sc12 [Example 84, 8-Methyl-5,7-dioxo-6-(4-sulfamoyl-benzyl)-6,7-dihydro-5H-thiazolo[3,2-c]pyrimidine-2-carboxylic acid(pyridin-4-ylmethyl)-amide hydrochloride]
> 100 µM | > 100 µM | > 30 µM | > 100 µM | COc1ccc(CNC(=O)c2cn3c(=O)n(Cc4ccccc4)c(=O)c(C)c3s2)cc1F [Example 46, 6-Benzyl-8-methyl-5,7-dioxo-6,7-dihydro-5H-thiazolo[3,2-c]pyrimidine-2-carboxylic acid 3-fluoro-4-methoxy-benzylamide]
> 100 µM | > 100 µM | > 100 µM | > 100 µM | O=C(NCc1ccccc1)c1cn2c(=O)n(Cc3ccncc3)c(=O)cc2s1 [Example 15, 6-(4-Pyridylmethyl)-5,7-dioxo-6,7-dihydro-5H-thiazolo[3,2-c]pyrimidine-2-carboxylic acid benzylamide hydrochloride]
> 100 µM | > 100 µM | > 100 µM | > 100 µM | O=C(NCc1ccncc1)C1Cn2c(cc(=O)n(Cc3ccccc3)c2=O)S1 (stereo not shown) [Example 22, 6-Benzyl-5,7-dioxo-2,3,6,7-tetrahydro-5H-thiazolo[3,2-c]pyrimidine-2-carboxylic acid(pyridin-4-ylmethyl)-amide]
> 30 µM | > 30 µM | > 30 µM | > 30 µM | COc1ccc(CNC(=O)c2cn3c(=O)n(Cc4ccc(C(=O)OCCN(C)C)cc4)c(=O)c(C)c3s2)cc1 [Example 57, 4-[2-(4-Methoxy-benzylcarbamoyl)-8-methyl-5,7-dioxo-7H-thiazolo[3,2c]pyrimidin-6-ylmethyl]-benzoic acid 2-dimethylamine-ethyl ester hydrochloride]
